Source: article doi:10.1101/2023.11.24.568596v1 (biorxiv, 2023)

Legend:
Conditions in all cases: binder
BMX = target: T1, BMX (Homo sapiens, UniProt P51813)
T1 sequence (P51813 1-675): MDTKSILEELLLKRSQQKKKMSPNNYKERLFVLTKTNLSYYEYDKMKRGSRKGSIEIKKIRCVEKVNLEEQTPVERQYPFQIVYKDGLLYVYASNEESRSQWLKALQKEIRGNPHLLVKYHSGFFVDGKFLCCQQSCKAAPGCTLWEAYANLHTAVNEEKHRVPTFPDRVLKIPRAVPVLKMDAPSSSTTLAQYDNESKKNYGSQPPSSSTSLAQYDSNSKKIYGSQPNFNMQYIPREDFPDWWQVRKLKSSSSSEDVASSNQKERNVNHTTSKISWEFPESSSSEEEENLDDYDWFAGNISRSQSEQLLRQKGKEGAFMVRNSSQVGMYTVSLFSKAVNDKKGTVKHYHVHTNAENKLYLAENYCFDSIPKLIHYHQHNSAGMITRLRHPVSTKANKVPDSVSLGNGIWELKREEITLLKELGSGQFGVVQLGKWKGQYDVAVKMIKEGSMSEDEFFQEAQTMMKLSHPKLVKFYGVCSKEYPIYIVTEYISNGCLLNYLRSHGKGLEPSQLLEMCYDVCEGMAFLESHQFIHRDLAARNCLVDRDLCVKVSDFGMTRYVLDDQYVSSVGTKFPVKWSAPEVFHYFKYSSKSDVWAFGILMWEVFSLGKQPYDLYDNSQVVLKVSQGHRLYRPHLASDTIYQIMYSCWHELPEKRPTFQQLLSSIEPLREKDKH

CaMK2d = CaMK2d (Homo sapiens, UniProt Q13557)
CaMKK2 = CaMKK2 (Homo sapiens, UniProt Q96RR4)
EphA2 = EphA2 (Homo sapiens, UniProt P29317)
EphA5 = EphA5 (Homo sapiens, UniProt P54756)
EphA7 = EphA7 (Homo sapiens, UniProt Q15375)
Erk7 = target: T2, Erk7 (Homo sapiens, UniProt Q8TD08)
T2 sequence (Q8TD08 1-544): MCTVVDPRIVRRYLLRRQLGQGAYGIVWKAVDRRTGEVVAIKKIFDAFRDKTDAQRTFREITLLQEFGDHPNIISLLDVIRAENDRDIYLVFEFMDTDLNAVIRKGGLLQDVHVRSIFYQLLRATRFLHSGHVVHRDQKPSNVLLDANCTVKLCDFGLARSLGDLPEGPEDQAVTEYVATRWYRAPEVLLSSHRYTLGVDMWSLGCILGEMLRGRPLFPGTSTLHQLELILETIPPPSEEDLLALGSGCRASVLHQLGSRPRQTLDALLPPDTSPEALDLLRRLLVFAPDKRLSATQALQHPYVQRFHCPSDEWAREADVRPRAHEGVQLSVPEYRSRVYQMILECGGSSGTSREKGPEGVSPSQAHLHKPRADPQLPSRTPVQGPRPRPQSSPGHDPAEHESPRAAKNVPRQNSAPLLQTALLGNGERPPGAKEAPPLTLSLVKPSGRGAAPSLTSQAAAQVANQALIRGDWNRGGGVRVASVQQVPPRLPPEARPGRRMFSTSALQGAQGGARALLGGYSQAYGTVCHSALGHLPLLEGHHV

LOK = LOK (Homo sapiens, UniProt O94804)
MARK3 = MARK3 (Homo sapiens, UniProt P27448)
NDR2 = NDR2 (Homo sapiens, UniProt Q9Y2H1)
NEK7 = NEK7 (Homo sapiens, UniProt Q8TDX7)
PHKG2 = target: T3, PHKG2 (Homo sapiens, UniProt P15735)
T3 sequence (P15735 1-406): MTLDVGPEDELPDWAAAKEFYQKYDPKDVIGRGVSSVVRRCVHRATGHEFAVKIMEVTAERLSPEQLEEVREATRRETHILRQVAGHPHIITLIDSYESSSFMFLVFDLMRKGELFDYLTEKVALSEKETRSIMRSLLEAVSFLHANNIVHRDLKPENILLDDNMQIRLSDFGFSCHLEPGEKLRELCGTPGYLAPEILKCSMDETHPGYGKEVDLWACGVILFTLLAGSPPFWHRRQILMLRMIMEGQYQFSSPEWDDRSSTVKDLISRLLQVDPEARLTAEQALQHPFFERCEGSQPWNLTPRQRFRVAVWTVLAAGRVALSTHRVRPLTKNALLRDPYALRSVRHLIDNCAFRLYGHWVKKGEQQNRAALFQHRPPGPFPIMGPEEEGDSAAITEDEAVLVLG

NEK7, sequence (Q8TDX7 whole entry): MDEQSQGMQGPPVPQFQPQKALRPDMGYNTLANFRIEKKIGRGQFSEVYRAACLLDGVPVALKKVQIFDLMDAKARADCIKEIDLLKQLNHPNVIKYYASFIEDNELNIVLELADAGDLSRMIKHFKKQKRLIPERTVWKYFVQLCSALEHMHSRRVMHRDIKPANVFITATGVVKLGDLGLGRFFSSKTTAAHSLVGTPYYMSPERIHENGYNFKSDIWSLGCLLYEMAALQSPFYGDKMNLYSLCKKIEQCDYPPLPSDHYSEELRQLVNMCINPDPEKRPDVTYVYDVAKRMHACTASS
NDR2, sequence (Q9Y2H1 whole entry): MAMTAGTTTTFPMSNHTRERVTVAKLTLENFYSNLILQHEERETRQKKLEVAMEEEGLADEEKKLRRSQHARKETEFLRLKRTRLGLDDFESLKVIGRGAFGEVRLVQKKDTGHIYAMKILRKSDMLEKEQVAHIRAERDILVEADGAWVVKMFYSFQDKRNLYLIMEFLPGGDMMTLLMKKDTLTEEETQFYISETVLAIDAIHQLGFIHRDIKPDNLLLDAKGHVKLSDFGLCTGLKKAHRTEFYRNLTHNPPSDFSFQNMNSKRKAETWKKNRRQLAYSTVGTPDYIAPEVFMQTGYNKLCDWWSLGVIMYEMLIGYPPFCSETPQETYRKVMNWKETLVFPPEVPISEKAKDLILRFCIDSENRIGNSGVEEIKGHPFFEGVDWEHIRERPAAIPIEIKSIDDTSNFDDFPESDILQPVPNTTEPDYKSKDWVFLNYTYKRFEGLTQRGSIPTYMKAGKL
EphA2, sequence (P29317 whole entry): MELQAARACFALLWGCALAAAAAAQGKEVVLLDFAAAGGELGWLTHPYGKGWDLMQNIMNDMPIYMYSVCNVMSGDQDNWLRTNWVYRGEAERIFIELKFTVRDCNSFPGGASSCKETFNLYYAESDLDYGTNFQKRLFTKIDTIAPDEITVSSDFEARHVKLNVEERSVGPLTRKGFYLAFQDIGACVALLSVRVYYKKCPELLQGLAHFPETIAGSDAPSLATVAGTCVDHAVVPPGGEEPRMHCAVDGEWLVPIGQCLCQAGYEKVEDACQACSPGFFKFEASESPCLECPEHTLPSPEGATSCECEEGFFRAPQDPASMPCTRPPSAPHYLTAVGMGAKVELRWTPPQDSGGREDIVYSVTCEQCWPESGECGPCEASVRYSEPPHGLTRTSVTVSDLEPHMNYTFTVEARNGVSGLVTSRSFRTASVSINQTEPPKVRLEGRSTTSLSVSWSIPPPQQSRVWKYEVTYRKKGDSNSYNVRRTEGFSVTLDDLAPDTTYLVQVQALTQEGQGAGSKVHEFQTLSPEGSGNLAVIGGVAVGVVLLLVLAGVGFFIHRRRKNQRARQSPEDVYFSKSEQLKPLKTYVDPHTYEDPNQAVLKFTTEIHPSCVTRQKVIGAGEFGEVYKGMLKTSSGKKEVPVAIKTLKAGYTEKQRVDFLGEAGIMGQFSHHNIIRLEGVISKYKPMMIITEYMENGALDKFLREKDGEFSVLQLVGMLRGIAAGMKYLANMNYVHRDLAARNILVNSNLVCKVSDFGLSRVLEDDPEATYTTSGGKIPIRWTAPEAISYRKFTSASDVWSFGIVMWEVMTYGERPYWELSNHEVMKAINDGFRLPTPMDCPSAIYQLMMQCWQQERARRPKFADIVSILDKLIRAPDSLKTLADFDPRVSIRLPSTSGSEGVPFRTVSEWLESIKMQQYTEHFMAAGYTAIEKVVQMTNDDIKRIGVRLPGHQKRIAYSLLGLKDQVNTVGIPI
LOK, sequence (O94804 whole entry): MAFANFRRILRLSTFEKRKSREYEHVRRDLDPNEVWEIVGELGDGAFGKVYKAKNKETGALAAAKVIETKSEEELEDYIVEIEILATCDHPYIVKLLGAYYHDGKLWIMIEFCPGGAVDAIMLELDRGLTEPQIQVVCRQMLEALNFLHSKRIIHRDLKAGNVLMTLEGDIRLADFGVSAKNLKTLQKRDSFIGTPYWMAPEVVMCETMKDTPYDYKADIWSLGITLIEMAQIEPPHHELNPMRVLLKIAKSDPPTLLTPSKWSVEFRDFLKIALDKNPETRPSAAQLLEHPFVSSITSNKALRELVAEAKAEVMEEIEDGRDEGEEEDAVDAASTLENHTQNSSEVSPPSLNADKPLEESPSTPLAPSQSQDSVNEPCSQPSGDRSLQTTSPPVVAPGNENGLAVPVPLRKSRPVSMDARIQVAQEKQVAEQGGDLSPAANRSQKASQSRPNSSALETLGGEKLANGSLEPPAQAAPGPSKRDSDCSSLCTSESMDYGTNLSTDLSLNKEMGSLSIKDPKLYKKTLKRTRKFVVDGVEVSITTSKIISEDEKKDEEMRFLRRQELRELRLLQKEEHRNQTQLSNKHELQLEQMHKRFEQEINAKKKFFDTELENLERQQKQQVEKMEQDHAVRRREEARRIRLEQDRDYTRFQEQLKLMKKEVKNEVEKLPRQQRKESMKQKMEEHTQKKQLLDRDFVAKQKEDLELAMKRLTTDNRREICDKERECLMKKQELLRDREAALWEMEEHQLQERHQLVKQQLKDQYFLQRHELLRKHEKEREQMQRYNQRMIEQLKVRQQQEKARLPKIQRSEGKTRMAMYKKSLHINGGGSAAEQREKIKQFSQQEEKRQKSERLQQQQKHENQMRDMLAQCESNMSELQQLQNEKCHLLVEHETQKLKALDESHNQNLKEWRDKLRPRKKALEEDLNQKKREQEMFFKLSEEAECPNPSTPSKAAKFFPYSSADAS
MARK3, sequence (P27448 whole entry): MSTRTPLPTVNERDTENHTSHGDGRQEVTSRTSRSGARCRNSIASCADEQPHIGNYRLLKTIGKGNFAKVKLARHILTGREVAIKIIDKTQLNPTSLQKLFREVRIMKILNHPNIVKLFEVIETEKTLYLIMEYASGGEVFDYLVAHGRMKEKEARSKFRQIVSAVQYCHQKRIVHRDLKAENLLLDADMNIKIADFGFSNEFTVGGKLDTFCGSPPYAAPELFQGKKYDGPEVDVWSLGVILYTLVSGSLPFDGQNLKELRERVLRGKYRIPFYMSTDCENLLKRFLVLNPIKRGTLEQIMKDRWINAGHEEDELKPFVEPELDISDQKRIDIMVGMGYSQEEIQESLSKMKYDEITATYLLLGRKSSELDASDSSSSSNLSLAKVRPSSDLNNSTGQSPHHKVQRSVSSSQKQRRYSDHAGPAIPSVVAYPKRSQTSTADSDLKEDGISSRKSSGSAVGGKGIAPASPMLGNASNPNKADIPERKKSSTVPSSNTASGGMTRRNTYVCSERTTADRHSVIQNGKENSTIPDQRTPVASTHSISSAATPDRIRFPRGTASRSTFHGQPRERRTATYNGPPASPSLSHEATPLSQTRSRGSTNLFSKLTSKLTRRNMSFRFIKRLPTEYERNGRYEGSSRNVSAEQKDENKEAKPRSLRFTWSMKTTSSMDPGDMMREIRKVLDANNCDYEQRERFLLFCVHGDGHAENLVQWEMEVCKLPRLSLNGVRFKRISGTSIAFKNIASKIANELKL
EphA7, sequence (Q15375 whole entry): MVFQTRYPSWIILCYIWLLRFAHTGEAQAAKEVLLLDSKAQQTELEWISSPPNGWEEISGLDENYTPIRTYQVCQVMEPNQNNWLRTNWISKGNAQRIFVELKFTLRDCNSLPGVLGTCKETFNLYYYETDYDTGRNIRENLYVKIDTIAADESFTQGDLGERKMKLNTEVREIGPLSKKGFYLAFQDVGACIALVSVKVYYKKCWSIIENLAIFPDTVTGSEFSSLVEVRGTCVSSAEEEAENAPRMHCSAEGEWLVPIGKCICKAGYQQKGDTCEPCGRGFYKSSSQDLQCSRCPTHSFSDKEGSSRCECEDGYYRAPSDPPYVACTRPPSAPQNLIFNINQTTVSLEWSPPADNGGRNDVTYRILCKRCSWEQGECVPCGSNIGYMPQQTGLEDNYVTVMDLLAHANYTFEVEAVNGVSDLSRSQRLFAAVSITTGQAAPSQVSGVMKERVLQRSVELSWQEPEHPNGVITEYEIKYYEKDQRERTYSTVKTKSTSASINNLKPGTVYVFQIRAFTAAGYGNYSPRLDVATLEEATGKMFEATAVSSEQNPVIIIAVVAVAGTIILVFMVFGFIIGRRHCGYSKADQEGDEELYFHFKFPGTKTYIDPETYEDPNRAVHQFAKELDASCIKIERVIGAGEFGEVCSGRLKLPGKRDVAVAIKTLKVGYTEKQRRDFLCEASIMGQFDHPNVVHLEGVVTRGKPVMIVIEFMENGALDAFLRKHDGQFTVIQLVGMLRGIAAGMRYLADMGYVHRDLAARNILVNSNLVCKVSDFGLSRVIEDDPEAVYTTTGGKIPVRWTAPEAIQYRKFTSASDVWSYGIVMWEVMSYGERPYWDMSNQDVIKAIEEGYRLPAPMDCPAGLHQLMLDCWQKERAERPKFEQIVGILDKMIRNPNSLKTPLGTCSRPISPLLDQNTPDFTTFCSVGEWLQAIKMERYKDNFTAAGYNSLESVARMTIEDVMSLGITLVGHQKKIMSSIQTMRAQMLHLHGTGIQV
CaMK2d, sequence (Q13557 whole entry): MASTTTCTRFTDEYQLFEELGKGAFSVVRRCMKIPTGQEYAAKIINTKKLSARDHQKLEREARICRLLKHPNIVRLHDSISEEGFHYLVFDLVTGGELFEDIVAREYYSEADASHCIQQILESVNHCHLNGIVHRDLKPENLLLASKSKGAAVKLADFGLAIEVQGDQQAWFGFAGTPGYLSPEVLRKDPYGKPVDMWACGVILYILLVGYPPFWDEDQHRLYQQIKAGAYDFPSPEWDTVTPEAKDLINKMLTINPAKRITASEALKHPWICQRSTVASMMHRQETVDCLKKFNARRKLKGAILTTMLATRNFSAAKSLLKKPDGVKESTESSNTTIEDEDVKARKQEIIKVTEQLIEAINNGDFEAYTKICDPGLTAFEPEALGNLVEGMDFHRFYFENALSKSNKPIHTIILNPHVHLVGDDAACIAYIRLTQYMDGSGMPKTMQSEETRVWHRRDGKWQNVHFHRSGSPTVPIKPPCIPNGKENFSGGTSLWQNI

## Cc1cccc(-c2ccc(-c3cc4cnc(Nc5ccc(C)c(O)c5)nc4n(CCCCN)c3=O)c(Cl)c2)n1 [compound 32, 8-(4-Aminobutyl)-6-(2-chloro-4-(6-methylpyridin-2-yl)phenyl)-2-((3-hydroxy-4-methylphenyl)amino)pyrido[2,3-d]pyrimidin-7(8H)-one]
BMX
  ΔTm 32: 7.3 °C
CaMK2d
  ΔTm 32: 0.0 °C
CaMKK2
  ΔTm 32: 6.8 °C
EphA2
  ΔTm 32: 7.9 °C
EphA5
  ΔTm 32: 6.6 °C
EphA7
  ΔTm 32: 5.4 °C
Erk7
  ΔTm 32: 1.0 °C
LOK
  ΔTm 32: -0.2 °C
MARK3
  ΔTm 32: 10.9 °C
NDR2
  ΔTm 32: 10.1 °C
NEK7
  ΔTm 32: -0.6 °C
PHKG2
  ΔTm 32: 6.4 °C

## Cc1cccc(-c2ccc(-c3cc4cnc(Nc5ccc(O)cc5)nc4n(CCCCN)c3=O)c(Cl)c2)n1 [compound 31, 8-(4-Aminobutyl)-6-(2-chloro-4-(6-methylpyridin-2-yl)phenyl)-2-((4-hydroxyphenyl)amino) pyrido[2,3-d]pyrimidin-7(8H)-one]
BMX
  ΔTm 31: 7.0 °C
CaMK2d
  ΔTm 31: -0.1 °C
CaMKK2
  ΔTm 31: 5.2 °C
EphA2
  ΔTm 31: 8.1 °C
EphA5
  ΔTm 31: 6.2 °C
EphA7
  ΔTm 31: 5.1 °C
Erk7
  ΔTm 31: 1.4 °C
LOK
  ΔTm 31: -0.4 °C
MARK3
  ΔTm 31: 10.9 °C
NDR2
  ΔTm 31: 9.9 °C
NEK7
  ΔTm 31: -1.6 °C
PHKG2
  ΔTm 31: 6.4 °C

## Cc1cccc(-c2ccc(-c3cc4cnc(Nc5cc(C(F)(F)F)ccc5C)nc4n(CCCCN)c3=O)c(Cl)c2)n1 [compound 28, 8-(4-Aminobutyl)-6-(2-chloro-4-(6-methylpyridin-2-yl)phenyl)-2-((2-methyl-5-(trifluoromethyl)phenyl)amino)pyrido[2,3-d]pyrimidin-7(8H)-one]
BMX
  ΔTm 28: 3.1 °C
CaMK2d
  ΔTm 28: -0.4 °C
CaMKK2
  ΔTm 28: 2.4 °C
EphA2
  ΔTm 28: 4.5 °C
EphA5
  ΔTm 28: 4.5 °C
EphA7
  ΔTm 28: 4.2 °C
Erk7
  ΔTm 28: 0.5 °C
LOK
  ΔTm 28: -0.7 °C
MARK3
  ΔTm 28: 3.8 °C
NDR2
  ΔTm 28: 7.1 °C
NEK7
  ΔTm 28: -0.7 °C
PHKG2
  ΔTm 28: 2.4 °C

## Cc1cccc(-c2ccc(-c3cc4cnc(NCCCN5CCNCC5)nc4n(CCCCN)c3=O)c(Cl)c2)n1 [compound 29, 8-(4-Aminobutyl)-6-(2-chloro-4-(6-methylpyridin-2-yl)phenyl)-2-((3-(piperazin-1-yl)propyl)amino)pyrido[2,3-d]pyrimidin-7(8H)-one]
BMX
  ΔTm 29: 2.1 °C
CaMK2d
  ΔTm 29: -0.1 °C
CaMKK2
  ΔTm 29: 0.7 °C
EphA2
  ΔTm 29: 5.1 °C
EphA5
  ΔTm 29: 2.7 °C
EphA7
  ΔTm 29: 4.1 °C
Erk7
  ΔTm 29: 0.1 °C
LOK
  ΔTm 29: -0.4 °C
MARK3
  ΔTm 29: 5.8 °C
NDR2
  ΔTm 29: 4.9 °C
NEK7
  ΔTm 29: -0.2 °C
PHKG2
  ΔTm 29: 2.2 °C

## Cc1cccc(-c2ccc(-c3cc4cnc(Nc5ccc(CCCO)cc5)nc4n(CCCCN)c3=O)c(Cl)c2)n1 [compound 30, 8-(4-Aminobutyl)-6-(2-chloro-4-(6-methylpyridin-2-yl)phenyl)-2-((4-(3-hydroxypropyl)phenyl)amino)pyrido[2,3-d]pyrimidin-7(8H)-one]
BMX
  ΔTm 30: 6.6 °C
CaMK2d
  ΔTm 30: 0.1 °C
CaMKK2
  ΔTm 30: 7.5 °C
EphA2
  ΔTm 30: 7.7 °C
EphA5
  ΔTm 30: 6.6 °C
EphA7
  ΔTm 30: 6.4 °C
Erk7
  ΔTm 30: 1.2 °C
LOK
  ΔTm 30: -0.4 °C
MARK3
  ΔTm 30: 11.6 °C
NDR2
  ΔTm 30: 10.7 °C
NEK7
  ΔTm 30: -0.9 °C
PHKG2
  ΔTm 30: 6.7 °C

## Cc1cccc(-c2ccc(-c3cc4cnc(NCCCN5CCCC5=O)nc4n(CCCCN)c3=O)c(Cl)c2)n1 [compound 27, MR30]
BMX
  ΔTm MR30 (27): 1.7 °C
CaMK2d
  ΔTm MR30 (27): -0.5 °C
CaMKK2
  ΔTm MR30 (27): 0.5 °C
EphA2
  ΔTm MR30 (27): 3.6 °C
EphA5
  ΔTm MR30 (27): 2.8 °C
EphA7
  ΔTm MR30 (27): 1.7 °C
Erk7
  ΔTm MR30 (27): -0.4 °C
LOK
  ΔTm MR30 (27): -0.6 °C
MARK3
  ΔTm MR30 (27): 4.7 °C
NDR2
  ΔTm MR30 (27): 1.5 °C
NEK7
  ΔTm MR30 (27): -0.4 °C
PHKG2
  ΔTm MR30 (27): 1.2 °C
